Experimental data reported in patent US6339064B1, “Benzylglycosylamides as inhibitors of smooth muscle cell proliferation” (American Home Products Corporation, priority 1998, dated 2002).

System: Porcine Smooth Muscle Cell
Assay: Effects of compounds on cell proliferation using 3H thymidine incorporation (porcine smooth muscle cell antiproliferation)
Assay type: cell-based
Settings: for Porcine Smooth Muscle Cell Antiproliferation, % at 50 μM: control (100%) = maximally stimulated cells; for IC50: serum/growth factor stimulated cells, 24-36 h incubation
Description: Effects of Compounds on Cell Proliferation Using ^3H Thymidine Incorporation
Human and porcine smooth muscle cells were tested in early passage (generally passage 3-7) at sub-confluent conditions. Cultures were grown in 16 mm (24 well) multi-well culture dishes in medium 199 supplemented with 10% fetal bovine serum and 2% antibiotic/antimycotic. At sub-confluence, the cells were placed in a defined serum free medium (AIM-V; Gibco) for 24-48 h prior to initiating the experimental protocol.
Compounds were added to each well at 50 fold dilution (20 μL/well) and the plates were incubated for 24-36 h at 37° C. in 5% CO2. Compounds were initially dissolved in 50% ethanol and serially diluted into media. Compounds were routinely evaluated at concentrations from 1 to 100 μM. As a control, grade II porcine intestinal mucosal herapin (sodium salt) was routinely evaluated in all cell preparations at concentrations from 0.1 to 100 μg/mL.
At the completion of the test procedure, plates were placed on ice, washed three times with ice cold phosphate buffered saline (PBS) and incubated in ice cold 10% trichloroacetic acid (TCA) got 30 min to remove acid soluble proteins. Solution was transferred to scintillation vials containing 0.4 N HCl (500 μL/vial to neutralize NaOH) and each well was rinsed two times with water (500 μL) for a total volume of 2 mL/vial.
Data was obtained, in triplicate, for both control and experimental samples. Control (100%) data was obtained from maximally stimulated cells, as the result of growth factor or serum stimulation. Experimental data was obtained from cells maximally stimulated with growth factor or serum and treated with compound. Data are expressed as an IC50 in Table I below.

Row | Structure (SMILES) | Porcine Smooth Muscle Cell Antiproliferation, % at 50 μM | IC50 | also measured
1 | N#CCCCOc1ccc(C(=O)NC2OC(CO)C(OC3OC4COC(c5ccccc5)OC4C(O)C3O)C(O)C2O)cc1Cl [Example 15, N-(4′,6′-O-Benzylidene-β-D-maltosyl)-3-chloro-4-(4-nitrilo-butoxy)-benzamide] | 30% at 50 | – | –
2 | N#CCCCOc1ccc(C(=O)NC2OC(COC(=O)c3ccccc3)C(OC3OC4COC(c5ccccc5)OC4C(O)C3O)C(O)C2O)cc1Cl [Example 16, N-(6-O-Benzoyl-4′,6′-O-benzylidene-β-D-maltosyl)-3-chloro-4-(4-nitrilo-butoxy)-phenyl amide] | – | 0.27 µM | –
3 | CC(=O)OC1C(NC(=O)c2ccc(OCCCC#N)c(Cl)c2)OC(COC(=O)c2ccccc2)C(OC2OC3COC(c4ccccc4)OC3C(OC(C)=O)C2OC(C)=O)C1OC(C)=O [Example 17, N-(2,2′,3,3′-tetra-O-Acetyl-6-O-benzoyl-4′,6′-O-benzylidene-β-D-maltosyl)-3-chloro-4-(4-nitrilo-butoxy)-benzamide] | 33% at 50 | – | –
4 | CCCCOc1ccc(C(=O)N[C@@H]2O[C@H](COC(C)=O)[C@@H](O[C@H]3O[C@H](COC(C)=O)[C@@H](OC(C)=O)[C@H](OC(C)=O)[C@H]3OC(C)=O)[C@H](OC(C)=O)[C@H]2OC(C)=O)cc1Cl [Example 18, 4-butoxy-3-chloro-N-[2,3,6-tri-O-acetyl-4-O-(2,3,4,6-tetra-O-acetyl-α-D-glucopyranosyl)-β-D-glucopyranosyl]benzamide] | – | – | IC50 (Sus scrofa): 3.5 µM
5 | CCCCOc1ccc(C(=O)NC2OC(CO)C(OC3OC4COC(c5ccccc5)OC4C(O)C3O)C(O)C2O)cc1Cl.O [Example 19, 4-Butoxy-3-chloro-N-[(4′,6′-O-benzylidene)-β-D-maltosyl]-benzamide hydrate] | 35% at 50 | – | –
6 | CCCCOc1ccc(C(=O)NC2OC(COC(=O)c3ccccc3)C(OC3OC4COC(c5ccccc5)OC4C(O)C3O)C(O)C2O)cc1Cl [Example 20, 4-Butoxy-3-chloro-N-[(6-O-benzoyl-4′,6′-O-benzylidene)-β-D-maltosyl]-benzamide] | – | 3.14 µM | –
7 | CCCCOc1ccc(C(=O)N[C@@H]2O[C@H](COC(=O)c3ccccc3)[C@@H](O[C@H]3O[C@@H]4COC(c5ccccc5)O[C@H]4[C@H](OC(C)=O)[C@H]3OC(C)=O)[C@H](OC(C)=O)[C@H]2OC(C)=O)cc1Cl (stereo partly drawn) [Example 21, 4-Butoxy-3-chloro-N-[(2,3,2′,3′-tetra-O-acetyl-6-O-benzoyl-4′,6′-O-benzylidene)-β-D-maltosyl]-benzamide] | – | 9.8 µM | –
8 | COc1cc(C(=O)NC2OC(CO)C(OC3OC4COC(c5ccccc5)OC4C(O)C3O)C(O)C2O)ccc1Cl [Example 23, N-(4′,6′-O-Benzylidene-β-D-maltosyl)-4-chloro-3-methoxy-benzamide] | 2% at 50 | – | –
9 | COc1cc(C(=O)NC2OC(COC(=O)c3ccccc3)C(OC3OC4COC(c5ccccc5)OC4C(O)C3O)C(O)C2O)ccc1Cl [Example 24, N-(6-O-Benzoyl-4′,6′-O-benzylidene-β-D-maltosyl)-4-chloro-3-methoxy-benzamide] | – | 2 µM | –
10 | CCCCOc1c(Cl)cc(C(=O)NC2OC(COC(C)=O)C(OC3OC(COC(C)=O)C(OC(C)=O)C(OC(C)=O)C3OC(C)=O)C(OC(C)=O)C2OC(C)=O)cc1OC [Example 25, N-(2,2′,3,3′,4,6,6′-hepta-O-acetyl-β-D-maltosyl]-4-butoxy-5-chloro-3-methoxy-benzamide] | – | 2.7 µM | –
11 | CCCCOc1c(Cl)cc(C(=O)N[C@@H]2O[C@H](CO)[C@@H](O[C@H]3O[C@@H]4COC(c5ccccc5)O[C@H]4[C@H](O)[C@H]3O)[C@H](O)[C@H]2O)cc1OC.O (stereo partly drawn) [Example 26, 4-butoxy-3-chloro-N-[(4′,6′-O-benzylidene)-β-D-maltosyl]-5-methoxy-benzamide Hydrate] | 32% at 50 | – | –
12 | CCCCOc1c(Cl)cc(C(=O)NC2OC(COC(=O)c3ccccc3)C(OC3OC4COC(c5ccccc5)OC4C(O)C3O)C(O)C2O)cc1OC [Example 27, N[(6-O-benzoyloxy-4′,6′-O-benzylidene)-β-D-maltosyl]-4-butoxy-3-chloro-5-methoxy-benzamide] | 45% at 50 | – | –
13 | CC(=O)OCC1OC(NC(=O)c2ccc(OCCCC#N)c([N+](=O)[O-])c2)C(OC(C)=O)C(OC(C)=O)C1OC1OC(COC(C)=O)C(OC(C)=O)C(OC(C)=O)C1OC(C)=O (stereo not shown) [Example 28] | 3% at 50 | – | –
14 | N#CCCCOc1ccc(C(=O)NC2OC(CO)C(OC3OC4COC(c5ccccc5)OC4C(O)C3O)C(O)C2O)cc1[N+](=O)[O-] [Example 29, N-(4′,6′-O-Benzylidene-β-D-maltosyl)-4-(4-nitrilo-butoxy)-3-nitro-benzamide] | 4% at 50 | – | –
15 | N#CCCCOc1ccc(C(=O)NC2OC(COC(=O)c3ccccc3)C(OC3OC4COC(c5ccccc5)OC4C(O)C3O)C(O)C2O)cc1[N+](=O)[O-] [Example 30, N-(6-O-Benzoyl-4′,6′-O-benzylidene-β-D-maltosyl)-4-(4-nitrilo-butoxy)-3-nitro-benzamide] | – | 1.4 µM | –
16 | CC(=O)OC1C(NC(=O)c2ccc(OCCCC#N)c([N+](=O)[O-])c2)OC(COC(=O)c2ccccc2)C(OC2OC3COC(c4ccccc4)OC3C(OC(C)=O)C2OC(C)=O)C1OC(C)=O [Example 31, N-(2,2′,3,3′-tetra-O-Acetyl-6-O-benzoyl-4′,6′-O-benzylidene-β-D-maltosyl)-4-(4-nitrilo-butoxy)-3-nitro-benzamide] | 15% at 50 | – | –
17 | CC(=O)OC[C@H]1O[C@@H](NC(=O)c2ccc(OCCCC#N)c(N)c2)[C@H](OC(C)=O)[C@@H](OC(C)=O)[C@@H]1O[C@H]1O[C@H](COC(C)=O)[C@@H](OC(C)=O)[C@H](OC(C)=O)[C@H]1OC(C)=O [Example 32] | 10% at 50 | – | –
18 | CC(=O)Nc1cc(C(=O)N[C@@H]2O[C@H](COC(C)=O)[C@@H](O[C@H]3O[C@H](COC(C)=O)[C@@H](OC(C)=O)[C@H](OC(C)=O)[C@H]3OC(C)=O)[C@H](OC(C)=O)[C@H]2OC(C)=O)ccc1OCCCC#N [Example 33] | 0% at 50 | – | –
19 | CC(=O)Nc1cc(C(=O)NC2OC(COC(=O)c3ccccc3)C(OC3OC4COC(c5ccccc5)OC4C(O)C3O)C(O)C2O)ccc1OCCCC#N [Example 34, 3-Acetylamino-N-(6-O-benzoyl-4′,6′-O-benzylidene-β-D-maltosyl)-4-(4-nitrilo-butoxy)-benzamide] | – | 0.98 µM | –
20 | CC(=O)OC[C@H]1O[C@@H](NC(=O)c2ccc(Cl)nc2)[C@H](OC(C)=O)[C@@H](OC(C)=O)[C@@H]1O[C@H]1O[C@H](COC(C)=O)[C@@H](OC(C)=O)[C@H](OC(C)=O)[C@H]1OC(C)=O [Example 35, N-(Hepta-O-acetyl-β-D-maltosyl)-6-chloropyridine-3-carboxamide] | – | 66.6 µM | –
21 | COc1ccc(C(=O)N[C@@H]2O[C@H](COC(C)=O)[C@@H](O[C@H]3O[C@H](COC(C)=O)[C@@H](OC(C)=O)[C@H](OC(C)=O)[C@H]3OC(C)=O)[C@H](OC(C)=O)[C@H]2OC(C)=O)c(OC)n1 [Example 36, N-(Hepta-O-acetyl-β-D-maltosyl)-2,6-dimethoxy-pyridine-3-carboxamide] | – | 13.6 µM | –
22 | CC(=O)OC[C@H]1O[C@@H](NC(=O)c2cncc(Br)c2)[C@H](OC(C)=O)[C@@H](OC(C)=O)[C@@H]1O[C@H]1O[C@H](COC(C)=O)[C@@H](OC(C)=O)[C@H](OC(C)=O)[C@H]1OC(C)=O [Example 37, N-(Hepta-O-acetyl-β-D-maltosyl)-5-bromopyridine-3-carboxamide] | – | 16.4 µM | –
